Test results taken from the NIST ThermoML archive (doi:10.1016/j.jct.2015.04.015).
Numbers after ± are expanded uncertainties.

Conditions: Gas, Rotating-body viscometer developed for low-density gases

Which viscosity (253.15 K, 100.2 kPa) does the source give for `O=C=O` [carbon dioxide] here?
The viscosity was 0.01271 ± 5.2e-05 mPa·s.

And the viscosity (253.15 K, 153 kPa)?
Its viscosity is 0.01271 ± 5.2e-05 mPa·s.

And the viscosity (253.15 K, 200.5 kPa)?
The viscosity was 0.01271 ± 5.2e-05 mPa·s.

And the viscosity (253.15 K, 300.5 kPa)?
Its viscosity is 0.01271 ± 5.2e-05 mPa·s.

And the viscosity (253.15 K, 401.4 kPa)?
The viscosity was 0.01272 ± 5.2e-05 mPa·s.

What about the viscosity (273.17 K, 100.4 kPa) of the same compound?
Its viscosity is 0.01371 ± 5.2e-05 mPa·s.

What about the viscosity (273.17 K, 151.8 kPa) of the same compound?
The viscosity was 0.0137 ± 5.2e-05 mPa·s.

What about the viscosity (273.17 K, 203.4 kPa) of the same compound?
Its viscosity is 0.0137 ± 5.2e-05 mPa·s.

What about the viscosity (273.17 K, 301.7 kPa) of the same compound?
The viscosity was 0.01371 ± 5.2e-05 mPa·s.

What about the viscosity (273.17 K, 399.4 kPa) of the same compound?
Its viscosity is 0.01371 ± 5.2e-05 mPa·s.

And the viscosity (273.17 K, 502.8 kPa)?
Its viscosity is 0.01372 ± 5.2e-05 mPa·s.

What about the viscosity (298.15 K, 100.8 kPa) of the same compound?
The viscosity was 0.0149 ± 3e-05 mPa·s.

What about the viscosity (298.15 K, 150.4 kPa) of the same compound?
Its viscosity is 0.01491 ± 3e-05 mPa·s.

And the viscosity (298.15 K, 201.6 kPa)?
The viscosity was 0.0149 ± 3e-05 mPa·s.

What about the viscosity (298.15 K, 204.6 kPa) of the same compound?
Its viscosity is 0.0149 ± 3e-05 mPa·s.

What about the viscosity (298.15 K, 303.2 kPa) of the same compound?
Its viscosity is 0.01491 ± 3e-05 mPa·s.

And the viscosity (298.15 K, 303.3 kPa)?
The viscosity was 0.01491 ± 3e-05 mPa·s.

And the viscosity (298.15 K, 400 kPa)?
Its viscosity is 0.01493 ± 3e-05 mPa·s.

What about the viscosity (298.15 K, 402.9 kPa) of the same compound?
The viscosity was 0.01492 ± 3e-05 mPa·s.

What about the viscosity (298.15 K, 498.5 kPa) of the same compound?
The viscosity was 0.01493 ± 3e-05 mPa·s.

What about the viscosity (298.15 K, 499.7 kPa) of the same compound?
The viscosity was 0.01494 ± 3e-05 mPa·s.

What about the viscosity (298.15 K, 502.8 kPa) of the same compound?
The viscosity was 0.01494 ± 3e-05 mPa·s.

What about the viscosity (298.15 K, 604.5 kPa) of the same compound?
Its viscosity is 0.01494 ± 3e-05 mPa·s.

And the viscosity (323.16 K, 100.8 kPa)?
Its viscosity is 0.01608 ± 5.1e-05 mPa·s.

What about the viscosity (323.16 K, 151.6 kPa) of the same compound?
The viscosity was 0.01608 ± 5.1e-05 mPa·s.

What about the viscosity (323.16 K, 200.9 kPa) of the same compound?
The viscosity was 0.01609 ± 5.1e-05 mPa·s.

And the viscosity (323.16 K, 304.9 kPa)?
The viscosity was 0.0161 ± 5.1e-05 mPa·s.

What about the viscosity (323.16 K, 400.7 kPa) of the same compound?
The viscosity was 0.0161 ± 5.1e-05 mPa·s.

And the viscosity (323.16 K, 500.4 kPa)?
The viscosity was 0.01612 ± 5.1e-05 mPa·s.

What about the viscosity (323.16 K, 598.7 kPa) of the same compound?
Its viscosity is 0.01613 ± 5.1e-05 mPa·s.

And the viscosity (373.16 K, 100.4 kPa)?
Its viscosity is 0.0184 ± 5e-05 mPa·s.

What about the viscosity (373.16 K, 151.4 kPa) of the same compound?
Its viscosity is 0.0184 ± 5e-05 mPa·s.

What about the viscosity (373.16 K, 201.1 kPa) of the same compound?
Its viscosity is 0.0184 ± 5e-05 mPa·s.

What about the viscosity (373.16 K, 296.8 kPa) of the same compound?
Its viscosity is 0.01842 ± 5e-05 mPa·s.

And the viscosity (373.16 K, 399.9 kPa)?
Its viscosity is 0.01843 ± 5e-05 mPa·s.

And the viscosity (373.16 K, 604.9 kPa)?
Its viscosity is 0.01846 ± 5e-05 mPa·s.

And the viscosity (373.16 K, 802.6 kPa)?
The viscosity was 0.01849 ± 5e-05 mPa·s.

What about the viscosity (423.14 K, 100.2 kPa) of the same compound?
Its viscosity is 0.02065 ± 5e-05 mPa·s.

And the viscosity (423.14 K, 153.3 kPa)?
The viscosity was 0.02066 ± 5e-05 mPa·s.

What about the viscosity (423.14 K, 204.1 kPa) of the same compound?
The viscosity was 0.02065 ± 5e-05 mPa·s.

What about the viscosity (423.14 K, 302 kPa) of the same compound?
Its viscosity is 0.02066 ± 5e-05 mPa·s.

And the viscosity (423.14 K, 397.6 kPa)?
Its viscosity is 0.02068 ± 5e-05 mPa·s.

And the viscosity (423.14 K, 600.4 kPa)?
The viscosity was 0.0207 ± 5e-05 mPa·s.

What about the viscosity (423.14 K, 800.8 kPa) of the same compound?
Its viscosity is 0.02073 ± 5e-05 mPa·s.

And the viscosity (423.14 K, 998.9 kPa)?
The viscosity was 0.02077 ± 5e-05 mPa·s.

And the viscosity (473.15 K, 153 kPa)?
Its viscosity is 0.02275 ± 5e-05 mPa·s.

What about the viscosity (473.15 K, 202.5 kPa) of the same compound?
Its viscosity is 0.02277 ± 5e-05 mPa·s.

What about the viscosity (473.15 K, 403.5 kPa) of the same compound?
Its viscosity is 0.02278 ± 5e-05 mPa·s.

What about the viscosity (473.15 K, 601.1 kPa) of the same compound?
Its viscosity is 0.02282 ± 5e-05 mPa·s.

And the viscosity (473.15 K, 803 kPa)?
The viscosity was 0.02284 ± 5e-05 mPa·s.

What about the viscosity (473.15 K, 997.8 kPa) of the same compound?
Its viscosity is 0.02288 ± 5e-05 mPa·s.

And the viscosity (473.15 K, 1200.9 kPa)?
Its viscosity is 0.0229 ± 5e-05 mPa·s.

What about the viscosity (473.16 K, 100.1 kPa) of the same compound?
The viscosity was 0.02275 ± 5e-05 mPa·s.
